In general, IC50 refers to the concentration at which inhibition is half-maximal.

These results are taken from PMC9596378, “Discovery and molecular basis of subtype-selective cyclophilin inhibitors” (Nature Chemical Biology, 2022).

Molecules are shown by their SMILES. Where two headings read alike, the source gives them in different places.

Holding throughout (experiment): Chymotrypsin coupled prolyl-isomerase assay
For assay [1], the target named is T1, CypC (Homo sapiens, UniProt P45877).
T1 construct: PPIC (UniProtKB Entry P45877: residues 24–212); host or cells: E. coli BL21(DE3)
Type of assay: biochemical. Put shortly:
(§1)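 Steps: cyclophilin plus compound 5 min at 2–3 °C; α-chymotrypsin added, 5 min more; Suc-AAPF-AMC substrate in LiCl/trifluoroethanol injected and fluorescence followed 330 s. Finals: 5 nM enzyme, 25 µM chymotrypsin, 5 µM substrate, 0.25% DMSO.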

Assay [2] addresses T2, CypH (Homo sapiens, UniProt O43447).
T2 construct: PPIH (UniProtKB Entry O43447: residues 1–177); His6 with TEV site (2BT vector leader) (N); made in house; host or cells: E. coli BL21(DE3)
It is filed as biochemical. Put shortly: as §1

Assay [3] concerns the target T3, CypE (Homo sapiens, UniProt Q9UNP9).
T3 construct: PPIE (UniProtKB Entry Q9UNP9: residues 131–301); host or cells: E. coli BL21(DE3)
It is filed as biochemical. As to conditions: wild-type CypE; read-out: Wild-Type Cyclophilin Prolyl Isomerase Inhibition IC50 Values, CypE. Put shortly:
as §1

The target in assay [4] is T4, CypA (Homo sapiens, UniProt P62937).
T4 construct: PPIA (UniProtKB Entry P62937: residues 1–165); made in house; host or cells: E. coli BL21(DE3)
Type of assay: biochemical. The following applies: wild-type CypA; read-out: Wild-Type Cyclophilin Prolyl Isomerase Inhibition IC50 Values, CypA. Put shortly:
as §1

Assay [5] has as its target T5, CypG (Homo sapiens, UniProt Q13427).
T5 construct: PPIG (UniProtKB Entry Q13427: residues 1–179); His6 with thrombin site (pET28a LIC leader) (N); host or cells: E. coli BL21(DE3)
T5 sequence (Q13427 1-179): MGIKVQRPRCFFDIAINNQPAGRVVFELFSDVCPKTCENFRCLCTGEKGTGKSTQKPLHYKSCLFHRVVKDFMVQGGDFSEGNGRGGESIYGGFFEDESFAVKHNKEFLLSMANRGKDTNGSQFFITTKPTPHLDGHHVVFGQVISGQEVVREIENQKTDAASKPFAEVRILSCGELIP
Type of assay: biochemical. Put shortly:
as §1

In assay [6] the target is T6, NKTR (Homo sapiens, UniProt P30414).
T6 construct: NKTR (UniProtKB Entry P30414: residues 7–179); host or cells: E. coli BL21(DE3)
T6 sequence (P30414 7-179): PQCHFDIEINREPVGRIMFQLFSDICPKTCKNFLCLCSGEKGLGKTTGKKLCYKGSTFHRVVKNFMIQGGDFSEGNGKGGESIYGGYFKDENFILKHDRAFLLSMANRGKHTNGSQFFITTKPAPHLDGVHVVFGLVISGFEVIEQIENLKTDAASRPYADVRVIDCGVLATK
It is filed as biochemical.

Assay [7] concerns the target T7, PPIL1 (Homo sapiens, UniProt Q9Y3C6).
T7 construct: PPIL1 (UniProtKB Entry Q9Y3C6: residues 1–166); made in house; host or cells: E. coli BL21(DE3)
T7 sequence (Q9Y3C6 1-166): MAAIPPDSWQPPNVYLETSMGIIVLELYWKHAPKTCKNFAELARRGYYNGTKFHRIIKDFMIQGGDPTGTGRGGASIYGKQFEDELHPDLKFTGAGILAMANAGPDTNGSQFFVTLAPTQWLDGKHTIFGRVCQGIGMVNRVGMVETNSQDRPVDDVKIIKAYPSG
Type of assay: biochemical. The following applies: wild-type PPIL1; read-out: Wild-Type Cyclophilin Prolyl Isomerase Inhibition IC50 Values, PPIL1.

The target of assay [8] is Cyp40 (Homo sapiens, UniProt Q08752). Put shortly:
as §1

Setting [9] is: wild-type CypC, read-out: Wild-Type Cyclophilin Prolyl Isomerase Inhibition IC50 Values, CypC.
[10] abbreviates: wild-type CypH, read-out: Wild-Type Cyclophilin Prolyl Isomerase Inhibition IC50 Values, CypH.
Setting [11] is: wild-type CypG, read-out: Wild-Type Cyclophilin Prolyl Isomerase Inhibition IC50 Values, CypG.
[12] abbreviates: wild-type NKTR, read-out: Wild-Type Cyclophilin Prolyl Isomerase Inhibition IC50 Values, NKTR.

T1 sequence (P45877 24-212): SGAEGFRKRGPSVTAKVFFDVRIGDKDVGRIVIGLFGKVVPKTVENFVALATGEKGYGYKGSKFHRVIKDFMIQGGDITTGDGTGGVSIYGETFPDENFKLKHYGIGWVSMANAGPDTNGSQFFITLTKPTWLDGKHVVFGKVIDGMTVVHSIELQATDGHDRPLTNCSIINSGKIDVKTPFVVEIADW
T2 sequence (O43447 whole entry, the tested form may be a part): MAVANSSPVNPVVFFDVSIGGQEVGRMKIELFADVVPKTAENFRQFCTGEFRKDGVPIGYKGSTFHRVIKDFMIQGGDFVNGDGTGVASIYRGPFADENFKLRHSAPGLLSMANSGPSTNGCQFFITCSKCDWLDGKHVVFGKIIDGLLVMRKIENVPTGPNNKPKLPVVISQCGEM
Chain of Cyp40 (Q08752 1-183): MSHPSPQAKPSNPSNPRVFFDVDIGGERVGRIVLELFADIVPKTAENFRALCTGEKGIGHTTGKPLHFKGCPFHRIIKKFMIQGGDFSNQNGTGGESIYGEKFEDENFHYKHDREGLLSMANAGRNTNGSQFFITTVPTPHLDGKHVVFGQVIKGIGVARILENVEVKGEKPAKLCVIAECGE
T3 sequence (Q9UNP9 131-301): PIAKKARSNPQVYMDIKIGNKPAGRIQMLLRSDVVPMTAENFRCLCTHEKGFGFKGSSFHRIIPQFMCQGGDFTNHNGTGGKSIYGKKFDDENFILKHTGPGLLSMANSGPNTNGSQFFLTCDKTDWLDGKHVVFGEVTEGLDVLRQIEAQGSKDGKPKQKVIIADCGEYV
T4 sequence (P62937 whole entry, the tested form may be a part): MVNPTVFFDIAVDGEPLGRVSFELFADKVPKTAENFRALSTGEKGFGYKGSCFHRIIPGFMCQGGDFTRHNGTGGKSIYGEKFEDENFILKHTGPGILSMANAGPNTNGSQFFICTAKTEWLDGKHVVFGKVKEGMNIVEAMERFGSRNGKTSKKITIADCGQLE

As for `NCCCc1ccc(-c2ccc(C[C@@H]3NC(=O)[C@]4(Cc5ccccc5)CCCN(C4)C(=O)/C=C/C(=O)NCC[C@@H](C(=O)NCCOCCN)NC(=O)Cc4ccccc4CNC3=O)cc2)cc1` [Compound B32], the IC50 in assay [1] (setting [9]) is 1.2 µM; in assay [2] (setting [10]), over 50 µM; in assay [3], 7 µM; in assay [4], 8 µM; in assay [5] (setting [11]), 11 µM; in assay [6] (setting [12]), over 50 µM. The half-maximal inhibitory concentration (IC50) in assay [7] was 2 µM; in assay [8] (Wild-Type Cyclophilin Prolyl Isomerase Inhibition IC50 Values, Cyp40, wild-type Cyp40), 4 µM.
In the case of `C[N+]1=C(C=CC=CC=C2N(CCCCCC(=O)NCCNC(=O)C3CCNC(=O)C=CC(=O)N4CCCC(Cc5ccccc5)(C4)C(=O)NC(Cc4ccc(-c5ccc(CC(C(=O)O)C(=O)O)cc5)cc4)C(=O)NCc4ccccc4CC(=O)N3)c3ccccc3C2(C)C)C(C)(C)c2ccccc21` (centres unmarked) [Compound B52-Cy5], the IC50 was about 5 µM in assay [1] (prolyl-isomerase inhibition, 5 nM cyclophilin, read-out: IC50 CypC); 5 µM in assay [1] (setting [9]); about 10 µM in assay [2] (prolyl-isomerase inhibition, 5 nM cyclophilin, read-out: IC50 CypH); 10 µM in assay [2] (setting [10]); 1 µM in assay [3]; 0.19 µM in assay [4]. Also, the concentration for half-maximal inhibition (IC50) in assay [5] (prolyl-isomerase inhibition, 5 nM cyclophilin, read-out: IC50 CypG) is about 10 µM; in assay [5] (setting [11]), 10 µM; in assay [6] (prolyl-isomerase inhibition, 5 nM cyclophilin, read-out: IC50 NKTR), about 7 µM; in assay [6] (setting [12]) it was 7 µM; in assay [7] it was 4 µM; in assay [8] (read-out: Wild-Type Cyclophilin Prolyl Isomerase Inhibition IC50 Values, Cyp40, wild-type Cyp40), over 10 µM.
